This is an account of results in PubChem BioAssay AID192 (DTP/NCI, 2004).

Where “and” joins values, the source holds several entries; their conditions need not be identical. Identical values can stand only once. Toxic doses and inconclusive results are not listed.

This test has as its system BDF1 mice, B16 melanoma ip, median survival T/C. Briefly: NCI In Vivo Anticancer Drug Screen. Data for tumor model B16 Melanoma (intraperitoneal) in B6D2F1 (BDF1) mice. The settings on record: endpoint: median survival time, higher = longer survival. An outline of the steps: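 In this screen, activity was judged from survival or tumor size in treated versus vehicle-treated tumor-bearing mice, reported as T/C.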

Where [1] appears, read: dose: 12.5 mg/kg/injection, schedule: Q01DX009 (ip), vehicle: saline with Tween-80.
Setting [2] is: dose: 25.0 mg/kg/injection, schedule: Q01DX009 (ip), vehicle: saline with Tween-80.
The mark [3] stands for this setting: dose: 50.0 mg/kg/injection, schedule: Q01DX009 (ip), vehicle: saline with Tween-80.
[4] abbreviates: dose: 100.0 mg/kg/injection, schedule: Q01DX009 (ip), vehicle: saline with Tween-80.
Setting [5] is: dose: 200.0 mg/kg/injection, schedule: Q01DX009 (ip), vehicle: saline with Tween-80.
Setting [6] is: dose: 100.0 mg/kg/injection, schedule: Q01DX009 (ip), vehicle: saline.
Where [7] appears, read: dose: 200.0 mg/kg/injection, schedule: Q01DX009 (ip), vehicle: saline.
Where [8] appears, read: dose: 400.0 mg/kg/injection, schedule: Q01DX009 (ip), vehicle: saline.
Where [9] appears, read: dose: 800.0 mg/kg/injection, schedule: Q01DX009 (ip), vehicle: saline.

As for `O=C(O)c1cc(-c2ccc(Cl)cc2)nc2c(-c3ccccc3)cccc12`, the T/C under setting [1] was 87 % of control; the T/C under setting [2] is 105 % of control; the T/C under setting [3] was 87 % of control and 94 % of control; the T/C under setting [4] is 86 % of control; the T/C under setting [5] is 87 % of control.

For the compound `CC(CN1CC(=O)NC(=O)C1)N1CC(=O)NC(=O)C1` (configuration not stated), the T/C is 99 % of control (dose: 3.75 mg/kg/injection, schedule: Q01DX009 (ip), vehicle: alkali diluted with saline); 97 % of control (dose: 3.75 mg/kg/injection, schedule: Q01DX009 (ip), vehicle: saline sonified); 102 % of control (dose: 3.75 mg/kg/injection, schedule: Q01DX009 (ip), vehicle: saline); 100 % of control (dose: 3.75 mg/kg/injection, schedule: Q04DX004 (ip), vehicle: saline); 114 % of control (dose: 4.0 mg/kg/injection, schedule: Q01DX009 (ip), vehicle: saline with Tween-80); 115 % of control (dose: 4.0 mg/kg/injection, schedule: Q01DX009 (ip), vehicle: saline). The T/C runs as follows: (dose: 7.5 mg/kg/injection, schedule: Q01DX009 (ip), vehicle: alkali diluted with saline) 105 % of control; (dose: 7.5 mg/kg/injection, schedule: Q01DX009 (ip), vehicle: saline sonified) 100 % of control; (dose: 7.5 mg/kg/injection, schedule: Q01DX009 (ip), vehicle: saline) 104 % of control; (dose: 7.5 mg/kg/injection, schedule: Q04DX004 (ip), vehicle: saline) 90 % of control; (dose: 8.0 mg/kg/injection, schedule: Q01DX009 (ip), vehicle: saline with Tween-80) 105 % of control and 112 % of control and 118 % of control; (dose: 8.0 mg/kg/injection, schedule: Q01DX009 (ip), vehicle: saline) 123 % of control. Further, the T/C by setting is: (dose: 15.0 mg/kg/injection, schedule: Q01DX009 (ip), vehicle: alkali diluted with saline) 110 % of control; (dose: 15.0 mg/kg/injection, schedule: Q01DX009 (ip), vehicle: saline sonified) 109 % of control; (dose: 15.0 mg/kg/injection, schedule: Q01DX009 (ip), vehicle: saline with Tween-80) 110 % of control; (dose: 15.0 mg/kg/injection, schedule: Q01DX009 (ip), vehicle: saline) 114 % of control; (dose: 15.0 mg/kg/injection, schedule: Q04DX004 (ip), vehicle: saline) 88 % of control; (dose: 16.0 mg/kg/injection, schedule: Q01DX009 (ip), vehicle: saline with Tween-80) 121 % of control and 123 % of control. Moreover, the T/C by setting is: (dose: 25.0 mg/kg/injection, schedule: Q04DX003 (ip), vehicle: Klucel (hydroxypropylcellulose) (HPC)) 94 % of control and 97 % of control; (dose: 30.0 mg/kg/injection, schedule: Q01DX009 (ip), vehicle: alkali diluted with saline) 119 % of control; (dose: 30.0 mg/kg/injection, schedule: Q01DX009 (ip), vehicle: saline sonified) 119 % of control; (dose: 30.0 mg/kg/injection, schedule: Q01DX009 (ip), vehicle: saline with Tween-80) 113 % of control; (dose: 30.0 mg/kg/injection, schedule: Q01DX009 (ip), vehicle: saline) 121 % of control; (dose: 30.0 mg/kg/injection, schedule: Q01DX009 (oral), vehicle: saline) 95 % of control. The T/C is 90 % of control (dose: 30.0 mg/kg/injection, schedule: Q04DX004 (ip), vehicle: saline); 115 % of control (dose: 32.0 mg/kg/injection, schedule: Q01DX009 (ip), vehicle: Klucel (hydroxypropylcellulose) (HPC)); 122 % of control (dose: 32.0 mg/kg/injection, schedule: Q01DX009 (ip), vehicle: saline with Tween-80); 109 % of control and 110 % of control (dose: 32.0 mg/kg/injection, schedule: Q04DX003 (ip), vehicle: saline with Tween-80); 108 % of control and 110 % of control (dose: 50.0 mg/kg/injection, schedule: Q04DX003 (ip), vehicle: Klucel (hydroxypropylcellulose) (HPC)); 118 % of control (dose: 60.0 mg/kg/injection, schedule: Q01DX009 (ip), vehicle: saline with Tween-80). Further, the T/C was 111 % of control (dose: 60.0 mg/kg/injection, schedule: Q04DX004 (ip), vehicle: saline); 120 % of control (dose: 64.0 mg/kg/injection, schedule: Q01DX009 (ip), vehicle: Klucel (hydroxypropylcellulose) (HPC)); 108 % of control and 115 % of control (dose: 64.0 mg/kg/injection, schedule: Q04DX003 (ip), vehicle: saline with Tween-80); 115 % of control (dose: 64.0 mg/kg/injection, schedule: Q04DX003 (ip), vehicle: saline); 108 % of control and 112 % of control (dose: 100.0 mg/kg/injection, schedule: Q04DX003 (ip), vehicle: Klucel (hydroxypropylcellulose) (HPC)); 116 % of control (dose: 120.0 mg/kg/injection, schedule: Q01DX009 (ip), vehicle: saline with Tween-80). The T/C by setting is: (dose: 128.0 mg/kg/injection, schedule: Q01DX009 (ip), vehicle: Klucel (hydroxypropylcellulose) (HPC)) 120 % of control; (dose: 128.0 mg/kg/injection, schedule: Q04DX003 (ip), vehicle: saline with Tween-80) 121 % of control; (dose: 128.0 mg/kg/injection, schedule: Q04DX003 (ip), vehicle: saline) 121 % of control; (dose: 200.0 mg/kg/injection, schedule: Q04DX003 (ip), vehicle: Klucel (hydroxypropylcellulose) (HPC)) 112 % of control; (dose: 400.0 mg/kg/injection, schedule: Q04DX003 (ip), vehicle: Klucel (hydroxypropylcellulose) (HPC)) 108 % of control; (dose: 800.0 mg/kg/injection, schedule: Q04DX003 (ip), vehicle: Klucel (hydroxypropylcellulose) (HPC)) 112 % of control.

For the compound `CC(C)=CC(=O)OC1C2C(C)C(=O)OC2C(O)C(C)C2C=CC(=O)C21C` (configuration not stated), the T/C is 95 % of control (dose: 6.25 mg/kg/injection, schedule: Q01DX009 (ip), vehicle: Klucel (hydroxypropylcellulose) (HPC)); 91 % of control (dose: 6.25 mg/kg/injection, schedule: Q01DX009 (ip), vehicle: saline with Tween-80); 97 % of control (dose: 12.5 mg/kg/injection, schedule: Q01DX009 (ip), vehicle: Klucel (hydroxypropylcellulose) (HPC)); 94 % of control under setting [1]; 93 % of control and 99 % of control (dose: 25.0 mg/kg/injection, schedule: Q01DX009 (ip), vehicle: Klucel (hydroxypropylcellulose) (HPC)); 97 % of control under setting [2].

With `CCN(CC)CC(C)(C)CO`, the T/C under setting [3] is 99 % of control, the T/C under setting [4] was 101 % of control and the T/C under setting [5] is 89 % of control.

For the compound `CCCC(O)C(CC)CO` (configuration not stated), the T/C was 100 % of control under setting [4]; 121 % of control under setting [5]; 115 % of control (dose: 400.0 mg/kg/injection, schedule: Q01DX009 (ip), vehicle: saline with Tween-80).

`CC(=O)NCCCCCCNC(C)=O`: the T/C under setting [6] is 101 % of control, the T/C under setting [7] is 105 % of control, the T/C under setting [8] is 87 % of control and the T/C under setting [9] is 105 % of control.

In the case of `CCCCCC(C)(O)CCCCC`, the T/C by setting is: under setting [6], 107 % of control; under setting [7], 92 % of control.

`C1CC[N-]CC1.C1CC[N-]CC1.C1CC[N-]CC1.C1CC[N-]CC1.N#C[S-].N#C[S-].[Ni]`: the T/C is 92 % of control (dose: 5.0 mg/kg/injection, schedule: Q01DX009 (ip), vehicle: saline with Tween-80) and 104 % of control (dose: 10.0 mg/kg/injection, schedule: Q01DX009 (ip), vehicle: saline with Tween-80).

For `Cc1ccc(N(CCCl)CCCl)cc1NC(=O)c1ccccc1`, the T/C is, setting by setting: under setting [8], 161 % of control; under setting [9], 188 % of control.

With `O=S(=O)(O)O.[NH-]CC1(C[NH-])CCCCC1.[Pt+2]`, the T/C (dose: 8.0 mg/kg/injection, schedule: Q04DX003 (ip), vehicle: dextrose) was 161 % of control.

On to `CC(C)(N)Cc1ccc(Cl)cc1`, for which the T/C was 110 % of control (dose: 6.25 mg/kg/injection, schedule: Q01DX009 (ip), vehicle: saline); 90 % of control (dose: 12.5 mg/kg/injection, schedule: Q01DX009 (ip), vehicle: saline); 97 % of control (dose: 25.0 mg/kg/injection, schedule: Q01DX009 (ip), vehicle: saline); 100 % of control (dose: 50.0 mg/kg/injection, schedule: Q01DX009 (ip), vehicle: saline); 100 % of control under setting [6].

With `CCC[CH2][Sn]1([CH2]CCC)[O]OC2(CCCCC2)[O]1`, the T/C by setting is: (dose: 1.25 mg/kg/injection, schedule: Q01DX009 (ip), vehicle: saline with Tween-80) 113 % of control; (dose: 2.5 mg/kg/injection, schedule: Q01DX009 (ip), vehicle: saline with Tween-80) 100 % of control.
